Drawing on PubChem BioAssay (NCI), this text covers GI50 and TGI for 16 compounds.

Values joined by “and” are separate entries in the source; they are usually repeats but may differ in a detail not shown here. Identical values can stand only once.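 Exposure lasted 48 hours, with cells grown in 96-well plates and compounds tested at five concentrations. GI50: concentration for 50% inhibition of growth. TGI: concentration producing complete growth inhibition.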

Holding throughout (experiment): NCI tumour cell line growth inhibition, 48 h
The subject of assay [1] is SK-MEL-28 melanoma.
In assay [2] the test system is MCF7 breast.
Assay [3] relates to SW-620 colon.
In assay [4] the test system is SF-268 CNS.
The test system of assay [5] is LOX IMVI melanoma.
Assay [6] has as its system OVCAR-4 ovarian.
For assay [7], the system named is CCRF-CEM leukemia.
The test system of assay [8] is RPMI-8226 leukemia.
Assay [9] relates to UACC-62 melanoma.
Assay [10] deals with OVCAR-8 ovarian.

As to `O=[N+]([O-])/C=C/c1c[nH]c2ccccc12`, the GI50 in [1] was 17.4 µM; in assay [2] it was 6.02 µM; in [3] it was 15.2 µM; in assay [4], 16 µM; in assay [5] it was 15.9 µM; in assay [6] it was 12.4 µM. Further, the GI50 is 15.8 µM in assay [7], 1.83 µM in [8], 17.4 µM in assay [9] and 21.6 µM in assay [10]. Also, the TGI in assay [1] came out at 32.5 µM; in assay [2], 38.4 µM; in assay [3] it was 57.5 µM; in assay [4], 40.5 µM; in assay [5], 30.2 µM; in assay [6], 26.8 µM. Moreover, the TGI in assay [7] was more than 100 µM; in assay [8], 7.7 µM; in assay [9], 32.3 µM; in assay [10] it was 49.4 µM.

For the compound `COc1ccc(-c2nc(-c3cn(C)c4ncccc34)cs2)cc1`, the GI50 in [1] is 79.3 µM; in [2] it was 12.5 µM; in [3], 19.3 µM; in assay [4], 82.6 µM; in assay [5], 54.1 µM; in assay [6], more than 100 µM. The GI50 is more than 100 µM in assay [7], 37.1 µM in assay [8], 13 µM in assay [9] and more than 100 µM in assay [10]. Also, the TGI in assay [1], in assay [2], in assay [3], in assay [4], in assay [5] and in [6] was more than 100 µM in each case. For the same compound, the TGI in assay [7], in [8], in [9] and in assay [10] was more than 100 µM in each case.

Take `O=C(NOCC1CC1)c1ccc(F)c(F)c1Nc1ccc(I)cc1Cl`: the GI50 in assay [1] was 0.0526 µM; in assay [2], 3.11 µM; in assay [3], 0.141 µM; in assay [4] it was 2.82 µM; in [5], 0.727 µM; in assay [6], 1.81 µM. In addition, the GI50 in assay [7] was 2.99 µM; in assay [8], 1.97 µM; in assay [9] it was 0.064 µM; in [10] it was 2.32 µM. Further, the TGI was 0.812 µM in assay [1]; 19.1 µM in [2]; more than 39.3 µM in [3]; more than 100 µM in [4]; 13.2 µM in assay [5]; 17.7 µM in assay [6]. Besides, the TGI in [7] was found to be 19.1 µM; in assay [8] it was 9.48 µM; in assay [9], 1.41 µM; in assay [10], 20.6 µM.

For `Cn1c(=O)c2[nH]c(CS(=O)(=O)Cc3nc4c([nH]3)c(=O)n(C)c(=O)n4C)nc2n(C)c1=O`, the TGI in assay [1], in assay [2], in assay [3], in assay [4], in [5] and in assay [6] was more than 100 µM in each case. Besides, the TGI in assay [7], in assay [8], in [9] and in [10] was more than 100 µM in each case.

For `S=C(Nc1ccc(Cl)cc1)Nc1ccc(-c2nc3ccccc3[nH]2)cc1`, the TGI is 35.5 µM in assay [1]; more than 41.5 µM in assay [2]; more than 58.8 µM in [3]; more than 68.7 µM in assay [4]; 11.7 µM in assay [5]; more than 84.3 µM in assay [6]. In addition, the TGI in [7] was more than 63.6 µM; in assay [8] it was more than 21.2 µM; in assay [9], 14.8 µM; in [10], more than 59.7 µM. The GI50 in assay [3] was 22.4 µM; in assay [4], 12.2 µM; in [5] it was 5.05 µM; in assay [6], 15.4 µM; in [7] it was 4.37 µM; in assay [8] it was 2.23 µM. Besides, the GI50 in [9] is 5.15 µM; in assay [10], 14.3 µM.

`Cc1[nH]c(/C=C2\C(=O)Nc3ccc(F)cc32)c(C)c1C(=O)NC[C@H](O)CN1CCOCC1`: the GI50 in assay [1] was 4.16 µM; in assay [2], 3.11 µM; in assay [3], 2.3 µM; in [4], 4.83 µM; in assay [5], 2.33 µM; in assay [6] it was 7.95 µM. Besides, the GI50 is 0.0624 µM in assay [7], 3.54 µM in [8], 3.55 µM in assay [9] and 5.41 µM in assay [10]. Also, the TGI in assay [1], in assay [2], in assay [3], in assay [4], in assay [5] and in [6] was more than 10 µM in each case. For the same compound, the TGI in assay [7], in assay [8], in assay [9] and in assay [10] was more than 10 µM in each case.

With `Cc1cc(S(=O)(=O)Nc2nnc(-c3ccccc3)c(-c3ccccc3)n2)c(SCc2ccccc2)cc1Cl`, the GI50 in assay [1] is 22.6 µM; in [2] it was 24 µM; in assay [3], 20.6 µM; in assay [4], 19.3 µM; in assay [5], 26.2 µM; in [6], 19.9 µM. Also, the GI50 in [7] is 23.8 µM; in [8], 11.5 µM; in assay [9], 16.1 µM; in assay [10], 27.2 µM. Moreover, the TGI is 40.7 µM in assay [1]; 54.2 µM in assay [2]; 44.8 µM in assay [3]; 39.9 µM in assay [4]; 50.2 µM in assay [5]; 37.2 µM in [6]. In addition, the TGI in [7] amounted to 75.5 µM; in [8] it was 52.8 µM; in assay [9], 30.9 µM; in [10], 89.7 µM.

On to `COc1ccc(-c2cn[nH]c2-c2cc(OC)c(OC)c(OC)c2)cc1N`, for which the TGI in assay [1], in assay [2], in assay [3], in assay [4], in assay [5] and in assay [6] was more than 100 µM throughout. The TGI in assay [7] was more than 100 µM; in assay [8], 30.8 µM and 54.1 µM; in assay [9], 70.1 µM and > 100 µM; in [10], more than 100 µM. The GI50 in assay [2] was < 0.01 µM and 0.0266 µM; in [3] it was < 0.01 µM and 0.0397 µM; in assay [5] it was < 0.01 µM and 0.0436 µM; in assay [6], 0.013 µM and 0.0877 µM; in assay [7] it was < 0.01 µM and 0.0347 µM; in assay [8] it was < 0.01 µM and 0.0535 µM. Further, the GI50 is less than 0.01 µM in assay [9]; < 0.01 µM and 0.0519 µM in assay [10].

As for `COc1c(O)ccc2c1CN1CCc3cc4c(cc3C1C2)OCO4` (stereo not given), the TGI in assay [1] is more than 100 µM; in [2] it was more than 63.1 µM; in [3], more than 100 µM; in assay [4], more than 100 µM; in [5] it was more than 77.8 µM; in assay [6], more than 100 µM. For the same compound, the TGI in [7], in assay [8], in [9] and in [10] was more than 100 µM in each case.

For the compound `O=C1CCC2(C=C(Br)C(=O)C(Br)=C2)O1`, the GI50 in assay [1] is 1.69 µM; in assay [2], 3.57 µM; in assay [3], 1.81 µM; in [4], 15.1 µM; in assay [5], 2.53 µM; in assay [6] it was 2.08 µM. In addition, the GI50 was 1.97 µM in [7], 10.7 µM in assay [8], 14.8 µM in assay [9] and 3.45 µM in assay [10]. In addition, the TGI in [1] is 3.87 µM; in assay [2], 15.7 µM; in [3] it was 3.54 µM; in assay [4], 28.6 µM; in [5] it was 7.53 µM; in [6], 4.34 µM. For the same compound, the TGI came out at 6.25 µM in [7], 46 µM in assay [8], 29 µM in assay [9] and 11.5 µM in assay [10].

In the case of `C[C@H]1CCC/C=C/[C@@H]2C[C@H](O)C[C@H]2[C@H](O)[C@@H](S(=O)CCN(C)C)CC(=O)O1` (stereo not given in full), the GI50 was 0.586 µM in assay [1]; 0.147 µM in [2]; 0.277 µM in assay [3]; 0.0564 µM in assay [4]; 0.0697 µM in assay [5]; 0.219 µM in assay [6]. The GI50 is 0.388 µM in assay [7], 0.387 µM in assay [8], 0.0667 µM in [9] and 0.0966 µM in assay [10]. Also, the TGI in [1], in assay [5], in assay [6], in [7] and in assay [9] was more than 100 µM throughout.

With `CN(C)CCCNC(=O)c1cc(NC(=O)c2cc(NC(=O)c3cc(NC(=O)CCc4c[nH]c5ccccc45)cn3C)cn2C)cn1C`, the GI50 in assay [1] was 2.24 µM; in assay [2], 56.8 µM; in assay [3], more than 100 µM; in assay [4], more than 100 µM; in assay [5], more than 100 µM; in [6], 88.5 µM. Moreover, the GI50 in [7], in assay [8], in [9] and in assay [10] was more than 100 µM throughout. The TGI in assay [1], in assay [2], in [3], in [4], in assay [5] and in assay [6] was more than 100 µM in each case. Moreover, the TGI in [7], in assay [8], in [9] and in assay [10] was more than 100 µM each time.

As to `C=C(CN1CCc2ccccc2C1)c1ccc(C(=O)Nc2ccc(N)cc2)cc1`, the GI50 in assay [1] is 24.9 µM; in assay [2] it was 14.8 µM; in assay [3], 30.5 µM; in assay [4] it was 23.5 µM; in assay [5], 17.7 µM; in assay [6], 40.7 µM. Further, the GI50 in [7] is 0.454 µM; in [8] it was 2.5 µM; in assay [9] it was 22.1 µM; in assay [10], 22.6 µM. The TGI was 72.5 µM in assay [1]; more than 100 µM in [2]; more than 100 µM in assay [3]; more than 100 µM in assay [4]; 55.7 µM in [5]; more than 100 µM in assay [6]. The TGI in assay [7] is more than 100 µM; in assay [8], 19 µM; in assay [9], more than 100 µM; in [10], 77.7 µM.

Take `O=C(NC(=S)Nc1ccc(Cl)cc1)c1ccccc1`: the GI50 was more than 100 µM in [1]; 2.85 µM in assay [2]; more than 100 µM in assay [3]; 76 µM in [4]; more than 100 µM in assay [5]; more than 46.5 µM in [6]. In addition, the GI50 is more than 100 µM in assay [7], more than 100 µM in assay [8], more than 50.4 µM in assay [9] and more than 100 µM in assay [10]. Further, the TGI in assay [1], in [3], in assay [4], in assay [5], in [6] and in [7] was more than 100 µM in each case. Also, the TGI in assay [8], in assay [9] and in assay [10] was more than 100 µM each time.

For `O=C(Oc1ccc(CCl)cc1)c1ccccc1`, the GI50 in [1] is 0.159 µM; in assay [2] it was 0.179 µM; in [3], 0.103 µM; in assay [4], 0.17 µM; in [5] it was 0.158 µM; in assay [6] it was 0.159 µM. The GI50 in [7] is 0.0335 µM; in assay [8], 0.0615 µM; in assay [9], 0.164 µM; in [10], 0.155 µM. Besides, the TGI in [1] came to 0.315 µM; in assay [2], 0.525 µM; in assay [3] it was 0.247 µM; in assay [4] it was 0.326 µM; in [5], 0.305 µM; in [6] it was 0.313 µM. For the same compound, the TGI was determined as 0.146 µM in assay [7], 0.288 µM in [8], 0.361 µM in assay [9] and 0.291 µM in assay [10].

`COc1cc2c(/C=C3/C(=O)Nc4ccccc43)c(Cl)n(Cc3ccccc3[N+](=O)[O-])c2cc1C`: the GI50 was 3.47 µM in [1]; 5.46 µM in assay [2]; 7.91 µM in [3]; 24 µM in [4]; 9.17 µM in [5]; 4.18 µM in assay [6]. Moreover, the GI50 in assay [7] is 5.62 µM; in assay [8] it was 3.49 µM; in assay [9], 6.69 µM; in assay [10], 26.1 µM. The TGI in assay [1] was 12.4 µM; in [2] it was more than 100 µM; in [3], 34.5 µM; in assay [4], more than 100 µM; in [5] it was 24 µM; in assay [6], 22.2 µM. For the same compound, the TGI is more than 100 µM in assay [7], more than 100 µM in assay [8], 27 µM in assay [9] and more than 100 µM in assay [10].
